# Source: paper PMC8105311 (Scientific Reports, 2021)
# How the values were obtained:
# [1] = cited from earlier work
# [2] = Solubility of L-carnitine in water; type: physicochemical
# [3] = test system: mice; design: method as in PMID 25488130; conditions: cited from earlier work
# [4] = 195Pt NMR of ligand exchange of cisplatin in solution; type: physicochemical; conditions: for Detection of Pt species by 195Pt NMR: DMSO aq. equimolar to 50 wt% TMG aq., day 1
# Method: ^195Pt NMR spectrometry and mass spectrometry
# After leaving it at room temperature, the resulting solution was measured at Day 5 and Day 10. We used co-axial tubes and K2[PtCl4] in D2O (for adjusting shim) was in the inner tube.
# (1 mL) was prepared and left for one day. The resulting solution was measured by ^195Pt NMR (Day 1; 25,000 scans). NaCl (80 mg) was added and stirred. The solution was left and measured (Day2–4; 25,000 scans). In the case of DMSO aq., the concentration of DMSO uesd was adjusted to be equimolar to 50 wt% TMG aq.
# [5] = test system: MDA-MB-231 cells; assay: Anticancer efficiency of cisplatin (cell viability, CellTiter 96 Aqueous One Solution); type: cell-based, human; conditions: final 0.1-100 µM
# Method: MDA-MB-231 human breast cancer cell was kindly gifted from Prof. Erik Sahai (The Francis-Crick Institute, UK) and described previously^7. The cells were grown and maintained as monolayer cultures in 5% CO2 and humidified atmosphere at 37 °C, using Dulbecco's modified Eagle medium (high glucose with L-glutamine and phenol red, Fujiﬁlm Wako Pure Chemical Corporation), 10 vol% fetal bovine serum (Sigma-Aldrich Co., Llc.), and penicillin–streptomycin solution (×100; Fujiﬁlm Wako Pure Chemical Corporation). The cells were subcultured every 3–5 days by using trypsin solution (0.5w/v% trypsin—5.3mmol/L EDTA·4Na solution without phenol red (×10), Fujiﬁlm Wako Pure Chemical Corporation).
# Anticancer efficiency of cisplatin
# MDA-MB-231 cells (5,000 cells/well) were seeded to each well of a 96-well plate and then pre-cultured for 24 h. […] The solutions were added to the media to be 100, 10, 1, and 0.1 µM. The cells were cultured for 72 h and the cell viability was investigated with CellTiter 96® Aqueous One Solution.
# (§1) The platinating agent (10 mM) was added to the 50 wt% TMG aq. (1 mL) and solubilized by stirring for 1 h. The resulting solution was left for more than one day. The resulting solution was freeze-dried and a pale yellow powder was obtained.
# [6] = Dissolution time of cisplatin/TMG powder vs native cisplatin powder; type: physicochemical; conditions: native cisplatin powder in 50 wt% TMG aq.
# Method: as §1
# The yellow precipitates are undissolved cisplatin.
compound,measurement,setting,value
"C[S+](C)[O-] [DMSO, dimethyl sulfoxide]",Kamlet-Taft β value (hydrogen bond basicity),[1],0.83
C[N+](C)(C)C[C@H](O)CC(=O)[O-] [L-carnitine],Solubility in water,[2],approximately 70 wt%
"C[N+](C)(C)CC(=O)O [TMG, Trimethylglycine]",Effect on nephrotoxicity when cisplatin is administered,[3],reduces nephrotoxicity
N.N.O.[Cl][Pt+] [[Pt(NH3)2Cl(H2O)]^+],Reversion to Pt(NH3)2Cl2 in the presence of NaCl,"[4]; 50 wt% TMG aq., after NaCl addition",reverted to Pt(NH3)2Cl2
same,Ratio of Pt species by 195Pt NMR,"[4]; 50 wt% TMG aq., after NaCl addition, day 2",2 mol%
same,Ratio of Pt species by 195Pt NMR,"[4]; 50 wt% TMG aq., after NaCl addition, day 3",0 mol%
same,Ratio of Pt species by 195Pt NMR,"[4]; 50 wt% TMG aq., after NaCl addition, day 4",0 mol%
same,Ratio of Pt species by 195Pt NMR,"[4]; 50 wt% TMG aq., left for 24 h (day 1), before NaCl addition",17 mol%
same,Detection of Pt species by 195Pt NMR,[4],not detected
N.N.[Cl][Pt][Cl] [cisplatin],MDA-MB-231 cell viability,"[5]; 10 mM cisplatin stock in 50 wt% TMG aq., 72 h",decreased in a dose-dependent manner
same,Anticancer effect (MDA-MB-231 cell viability),"[5]; cisplatin stock in 50 wt% L-carnitine aq., 72 h",retained the anticancer effect
same,Anticancer effect (MDA-MB-231 cell viability),"[5]; cisplatin stock in DMSO, 72 h",abolished
same,MDA-MB-231 cell viability,[5]; solution regenerated with water from freeze-dried cisplatin/TMG powder (10 mM cisplatin in 50 wt% TMG aq.),killed MDA-MB-231 cells in a dose-dependent manner
same,Ligand exchange (195Pt NMR),"[4]; 50 wt% TMG aq., immediately after dissolution",ligand exchange did not occur
same,Chloride ligand exchanged,"[4]; 50 wt% TMG aq., room temperature, after 10 days",66 mol%
same,Integral value of the signal of the emerging compound (Pt(NH3)2Cl2 signal fixed as 1.0),"[4]; 50 wt% TMG aq., room temperature, day 5",1.25
same,Integral value of the signal of the emerging compound (Pt(NH3)2Cl2 signal fixed as 1.0),"[4]; 50 wt% TMG aq., room temperature, day 10",1.90
same,Detection of Pt species by 195Pt NMR,[4],not detected
same,Time required for dissolution,[6],approximately 1 h
O [water],Kamlet-Taft β value (hydrogen bond basicity),[1],around 0.15
[Pt(NH3)Cl(DMSO)]^+,Detection of Pt species by 195Pt NMR,[4],detected
same,Reversion to Pt(NH3)2Cl2 in the presence of NaCl,"[4]; DMSO aq., after NaCl addition",scarcely reverted to Pt(NH3)2Cl2
